Test results as given in publication PMC4601023, “Novel anticancer agent, SQAP, binds to focal adhesion kinase and modulates its activity” (Scientific Reports, 2015).

Columns and labels:
[1] = system: TSP-1 expression in endothelial cells; set-up: method as in PMID 14739779; settings: cited from earlier work
[2] = system: breast CSCs; set-up: method as in PMID 25187396; settings: in combination with radiotherapy; cited from earlier work
[3] = target: T1, FAK (910–1052) (Homo sapiens, UniProt Q05397); experiment: SPR analysis, immobilized His-tagged FAK (910-1052); assay type: binding
T1 construct: For FAK (910–1052) DNA was amplified; made in house; host or cells: E. coli BL21 (DE3)
T1 sequence (Q05397 910-1052): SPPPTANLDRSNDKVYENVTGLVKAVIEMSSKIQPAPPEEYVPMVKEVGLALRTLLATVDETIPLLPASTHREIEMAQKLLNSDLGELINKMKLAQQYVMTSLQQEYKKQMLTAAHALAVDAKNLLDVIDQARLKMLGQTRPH
Text: (§1) SPR was utilized as an independent confirmation of the kinetic parameters between SQAP and the putative binding proteins. […] The recombinant proteins were then expressed in Escherichia coli and purified to homogeneity. In addition, full length, His-tagged ADRM1 and GST-tagged HR23B (GST-HR23B) were also used. The proteins were first immobilized on a CM5 sensor chip of the SPR biosensor (Biacore 3000). For GST-HR23B analysis, a GST protein was additionally immobilized and used as a control in order to eliminate possible nonspecific binding of SQAP. SQAP samples at different concentrations were then injected over the proteins immobilized on the sensor chip. As a negative control we used sulfoquynovosylpropanediol (SQP), which lacks the fatty acid moiety of SQAP (Fig. 1). […]
(§2) The binding kinetics of SCP-2, MFE-2, ADRM1, HR23B and FAK with SQAP and SQP were analyzed on a Biacore 3000 instrument (GE Healthcare, Little Chalfont, UK). […] The buffer of purified peptides was exchanged to HBS-P (150 mM NaCl, 0.005% Surfactant P20, 10 mM HEPES-NaOH pH 7.4) using a PD 10 column (GE Healthcare, Little Chalfont, UK) and the concentrations were quantified using DC protein assay kit (Bio-Rad Laboratories, Hercules, CA, USA). […] Kinetic parameters were determined by analyzing the data using BIAevaluation 4.1 software (GE Healthcare, Little Chalfont, UK).

[4] = target: T2, HR23B (Homo sapiens, UniProt P54727); experiment: SPR analysis, immobilized GST-HR23B (GST control subtracted); assay type: binding; settings: no kinetic analysis
T2 construct: ADRM1 and HR23B human full length proteins were purchased; purchased Abnova (Taipei, Taiwan)
T2 sequence (P54727 whole entry): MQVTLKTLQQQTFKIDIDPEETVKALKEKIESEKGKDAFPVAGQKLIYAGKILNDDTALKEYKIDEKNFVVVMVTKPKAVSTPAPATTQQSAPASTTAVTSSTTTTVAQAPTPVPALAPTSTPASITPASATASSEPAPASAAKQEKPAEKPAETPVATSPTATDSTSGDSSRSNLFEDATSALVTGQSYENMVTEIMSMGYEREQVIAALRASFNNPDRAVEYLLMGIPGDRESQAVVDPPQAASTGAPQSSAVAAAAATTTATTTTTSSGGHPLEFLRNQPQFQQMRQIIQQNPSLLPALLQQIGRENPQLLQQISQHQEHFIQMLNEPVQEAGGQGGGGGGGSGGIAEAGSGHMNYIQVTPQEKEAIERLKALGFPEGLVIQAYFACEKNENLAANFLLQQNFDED
Text: as §1, §2

[5] = system: FAK phosphorylation (Y397, Y925) in A549 cells; experiment: FAK phosphorylation level in A549, Western blotting; assay type: cell-based, human; settings: A549, fibronectin 10 μg/mL, 1 h treatment
Procedure: A549 cells were incubated in a serum-free medium for 48 h in 60 mm dishes (IWAKI, Tokyo, Japan). Then 10 μM SQAP, SQMG or SQP was added and incubated for 30 min followed by addition of fibronectin 10 μg/mL (Sigma, St. Louis, MI, USA) and incubation for another 30 min. FAK phosphorylation level was analyzed by Western blotting as described in the next section.
(§3) Cells were harvested and solubilized in RIPA buffer (20 mM Tris-HCl, pH 7.5, 1% Sodium deoxycholate, 150 mM NaCl, 5 mM EDTA, 1% Triton X-100, 0.1% SDS, 0.1%, 1 mM PMSF, 1 mM vanadate and 1 μg/mL leupeptin). Protein quantification was determined using the DC protein assay kit (Bio-Rad, Hercules, CA, USA). A total of 15 μg of each protein sample were separated by SDS–PAGE gels and blotted onto polyvinylidene difluoride membranes (Merck, Kenilworth, NJ, US). After blocking for 1 h with Blocking-One (Nacalai Tesque, Kyoto, Japan), proteins were detected by incubating the membranes with the primary antibody at 4 °C overnight (anti-Y397 2:2000, anti-Y925 5:2000 and anti-FAK 0.5:2000) followed by incubation with horseradish peroxidase-conjugated secondary antibodies at room temperature for 1 h (anti-mouse 0.5:2000 and anti-rabbit 0.4:2000).

[6] = target: T3, MFE-2 (598–736) (Homo sapiens, UniProt P51659); experiment: SPR analysis, immobilized His-tagged MFE-2 (598-736); assay type: binding
T3 construct: For MFE-2 (598–736) DNA was amplified; made in house; host or cells: E. coli Rosetta 2 (DE3) pLysS
T3 sequence (P51659 598-736): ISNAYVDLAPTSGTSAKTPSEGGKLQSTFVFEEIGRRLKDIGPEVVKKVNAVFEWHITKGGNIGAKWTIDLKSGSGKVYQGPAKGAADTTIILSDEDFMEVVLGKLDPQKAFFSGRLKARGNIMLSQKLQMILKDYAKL
Text: as §1, §2

[7] = target: T4, ADRM1 (Homo sapiens, UniProt Q16186); experiment: SPR analysis, immobilized full length His-ADRM1; assay type: binding
T4 construct: ADRM1 and HR23B human full length proteins were purchased; His-tag; purchased ATgen (Gyeonggi-do, Korea)
T4 sequence (Q16186 whole entry): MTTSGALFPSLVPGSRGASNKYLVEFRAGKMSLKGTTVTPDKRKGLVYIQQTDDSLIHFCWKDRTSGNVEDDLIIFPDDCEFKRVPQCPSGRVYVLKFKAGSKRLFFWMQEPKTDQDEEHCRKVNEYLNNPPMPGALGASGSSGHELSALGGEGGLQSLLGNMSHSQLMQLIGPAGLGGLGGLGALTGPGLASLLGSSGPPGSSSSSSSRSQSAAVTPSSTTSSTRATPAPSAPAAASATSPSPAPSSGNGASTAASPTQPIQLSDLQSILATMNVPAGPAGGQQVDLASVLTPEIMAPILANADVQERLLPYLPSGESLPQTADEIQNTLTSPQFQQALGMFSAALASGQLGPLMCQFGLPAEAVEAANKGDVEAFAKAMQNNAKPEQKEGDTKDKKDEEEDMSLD
Text: as §1, §2

[8] = target: T5, SCP-2 (400–547) (Homo sapiens, UniProt P22307); experiment: SPR analysis, immobilized His-tagged SCP-2 (400-547); assay type: binding
T5 construct: DNA encoding SCP-2 (400–547) was amplified; made in house; host or cells: E. coli Rosetta 2 (DE3) pLysS
T5 sequence (P22307 400-547): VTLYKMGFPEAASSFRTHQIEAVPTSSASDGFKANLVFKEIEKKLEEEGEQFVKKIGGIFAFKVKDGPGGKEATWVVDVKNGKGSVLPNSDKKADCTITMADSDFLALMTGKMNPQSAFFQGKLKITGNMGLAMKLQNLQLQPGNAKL
Text: as §1, §2

[9] = system: FAK phosphorylation (Y397, Y925) in HUVEC cells; experiment: FAK phosphorylation level in HUVEC, Western blotting; assay type: cell-based, human; settings: VEGF 50 ng/mL, 1 h
Procedure: HUVEC cells were incubated for 20 h in serum-free medium in 60 mm dishes. SQAP, SQMG or SQP was added and incubated for 30 min followed by addition of 50 ng/mL VEGF (RD systems, Minneapolis, MN. USA) and incubation for another 30 min. FAK phosphorylation level was analyzed by Western blotting as described in the next section.
as §3

[10] = system: TSP-1 gene; set-up: method as in PMID 22587436; settings: diverse cell lines including A549 and HUVEC; cited from earlier work
[11] = system: Akt phosphorylation at S473 in HUVEC; experiment: Akt phosphorylation in HUVEC, Western blotting; assay type: cell-based, human; settings: treated for 21 h, 10 µM
Text: Furthermore, we looked at FAK signaling pathway to validate our results. Paxillin binds to FAK 919–938 residues which is a sequence contained within the region where SQAP is predicted to bind. Binding between paxillin and FAK results in paxillin phosphorylation at Y118[35][36]. Thus, we examined paxillin phosphorylation. […] Additionally, we studied Akt phosphorylation at S473 on account of FAK is a known factor in control of Akt activity. We observed that Akt phosphorylation was diminished when treated with SQAP or SQMG for 21 h (see Supplementary Fig. S3).
as §3, with “0.4:2000). […]” for “0.4:2000).”

[12] = system: lung and colon adenocarcinomas; set-up: method as in PMID 9020475, PMID 21115885; settings: transplanted in nude mice, in combination with X-irradiation; cited from earlier work
[13] = target: VEGF (Homo sapiens, UniProt P15692); settings: cited from earlier work
VEGF, sequence (P15692 whole entry, species assumed): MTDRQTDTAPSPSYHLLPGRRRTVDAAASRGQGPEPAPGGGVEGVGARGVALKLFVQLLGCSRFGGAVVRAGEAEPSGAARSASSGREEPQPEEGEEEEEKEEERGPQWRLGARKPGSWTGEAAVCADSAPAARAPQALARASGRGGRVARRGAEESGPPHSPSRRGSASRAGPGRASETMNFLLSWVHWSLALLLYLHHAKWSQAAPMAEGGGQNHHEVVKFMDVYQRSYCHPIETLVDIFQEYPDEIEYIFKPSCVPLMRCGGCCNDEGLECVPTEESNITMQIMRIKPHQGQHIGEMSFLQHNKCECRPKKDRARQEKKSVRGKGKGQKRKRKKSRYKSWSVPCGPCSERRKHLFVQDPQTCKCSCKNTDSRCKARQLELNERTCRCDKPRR

[14] = system: Tie2 gene; set-up: method as in PMID 18380795; settings: cited from earlier work

O=c1cc(N2CCOCC2)oc2c(-c3ccccc3)cccc12 [LY 294002]
TSP-1 expression levels [1]: upregulated

CS(=O)(=O)c1cccc(CNc2nc(Nc3ccc4c(c3)CCC(=O)N4)ncc2C(F)(F)F)c1 [PF573228]
formation of clumps of breast CSCs [2]: block the formation of clumps

O=S(=O)(O)C[C@H]1O[C@H](OCCCO)[C@H](O)[C@@H](O)[C@@H]1O [SQP, sulfoquynovosylpropanediol, reference compound]
binding to FAK (SPR response) [3]: neither bound
binding to HR23B (SPR response) [4]: neither bound
phosphorylation of FAK at Y397 and Y925 [5]: failed to inhibit
binding to MFE-2 (SPR response) [6]: neither bound
binding to ADRM1 (SPR response) [7]: neither bound
binding to SCP-2 (SPR response) [8]: neither bound

sulfoquinovosyl monoacylglyceride [SQMG]
phosphorylation level of FAK at Y397 and at Y925 after VEGF stimulation [9]: can inhibit
TSP-1 gene expression [10]: upregulation
Akt phosphorylation at S473 [11]: diminished
tumor growth [12]: significantly inhibited
binding to VEGF [13]: bind to VEGF
Tie2 gene expression [14]: downregulation
